# Results from patent publication US20200222537A1, “BIOPHOTONIC COMPOSITIONS AND USES THEREOF” (KLOX TECHNOLOGIES LIMITED, priority 2016, published 2020).
# “And” between values parts separate entries of the source, which are not always exact repeats. Identical values can stand only once.
# How the values were obtained:
# [1] = Absorbance peak (Flex Station II); format: physicochemical
# Experimental: (§1) The compounds were dissolved in the solvents and at the concentrations indicated in Table 2 and the absorbance and emission peaks were measured (measured using a Flex Station II, Model 384 by Molecular Devices Comp.).
# [2] = Emission peak (Flex Station II); format: physicochemical
# Experimental: as §1
# [3] = Solubilization of chromophores in solvents; conditions: 1 M NaOH, aqueous buffer
smiles,measurement,setting,value
CCCCCCCCC[C@H](O)CC(=O)CCc1ccc(O)c(OC)c1 [10-Gingerol],solubility,physchem; organic solvent or mixture,10000 µg/mL
same,Absorbance peak (nm),[1]; gel and liquid,300 nm (gel and
O=C1c2cccc(O)c2C(=O)c2c(O)cc(CO)cc21 [Aloe-emodin],Emission peak (nm),"[2]; ex. 460 nm, gel","nm, em. 600 nm"
same,Emission peak (nm),"[2]; ex. 460 nm, liquid","ex. 460 nm, em. 588"
same,solubility,physchem; organic solvent or mixture,10000 µg/mL
COc1ccc2cc3[n+](cc2c1OC)CCc1cc2c(cc1-3)OCO2 [Berberine chloride hydrate],Emission peak (nm),"[2]; ex. 340 nm, gel","ex. 340 nm, em. 538"
same,Emission peak (nm),"[2]; ex. 430 nm, liquid","nm, em. 545 nm (liquid)"
same,Emission peak (nm),"[2]; ex. 460 nm, gel + liquid","ex. 460 nm, em. 540"
"O=C(/C=C/c1ccc(O)c(O)c1)OCCc1ccccc1 [Caffeic acid phenethyl ester (CAPE), Caffeic acid phenethyl ester]",solubility,physchem; organic solvent or mixture,10000 µg/mL
O=C(O)/C=C/c1ccc(O)c(O)c1 [Caffeic acid],Absorbance peak (nm),[1]; liquid,875 nm (liquid)
COc1cc(/C=C/C(=O)/C=C(O)/C=C/c2ccc(O)c(OC)c2)ccc1O [Curcumin],Emission peak (nm),"[2]; ex. 390 nm, liquid",em. 540 nm (liquid);
same,Emission peak (nm),"[2]; ex. 440 nm, gel","ex. 440 nm, em. 552"
same,Emission peak (nm),"[2]; ex. 460 nm, gel","ex. 460 nm, em. 555"
same,Emission peak (nm),"[2]; ex. 460 nm, liquid","nm, em. 544 nm"
same,solubility,physchem; organic solvent or mixture,5000 µg/mL
same,Absorbance peak (nm),[1]; medium not stated,440 nm
O=c1oc2c(O)c(O)cc3c(=O)oc4c(O)c(O)cc1c4c23 [Ellagic acid],Emission peak (nm),"[2]; ex. 370 nm, gel","ex. 370 nm, em. 736"
same,Absorbance peak (nm),[1]; gel,(liquid); 370 nm (gel)
O=C1C[C@@](O)(C(=O)O)C(C(=O)O)O1 (stereo partly drawn) [Garcinia acid],solubility,physchem; organic solvent or mixture,10000 µg/mL
same,Absorbance peak (nm),[1]; gel and liquid,300 nm (gel and
Cc1cc(O)c2c(=O)c3c(O)cc(O)c4c5c(O)cc(O)c6c(=O)c7c(O)cc(C)c8c1c2c(c34)c(c78)c65 [Hypericin],solubility,[3],500 µg/mL
same,Emission peak (nm),"[2]; ex. 345 nm, liquid","nm, em. 700 nm"
same,Emission peak (nm),"[2]; ex. 460 nm, liquid","ex. 460 nm, em. 700"
same,Emission peak (nm),"[2]; ex. 620 nm, liquid",em. 700 nm (liquid);
CC(C)=CCC/C(C)=C/C=C/C(C)=C/C=C/C(C)=C/C=C/C=C(C)/C=C/C=C(C)/C=C/C=C(\C)CCC=C(C)C [Lycopene],solubility,physchem; organic solvent or mixture,1000 µg/mL
same,Absorbance peak (nm),[1]; gel,490 nm
C/C=C1/[C@H](O[C@@H]2O[C@H](CO)[C@@H](O)[C@H](O)[C@H]2O)OC=C(C(=O)OC)[C@H]1CC(=O)OCCc1ccc(O)c(O)c1 [Oleuropein],solubility,physchem; organic solvent or mixture,10000 µg/mL
same,Absorbance peak (nm),[1]; gel and liquid,325 nm (gel and
O=C(/C=C/C=C/c1ccc2c(c1)OCO2)N1CCCCC1 [Piperine],Emission peak (nm),"[2]; ex. 340 nm, medium not stated","nm, em. 443 nm"
same,Emission peak (nm),"[2]; ex. 460 nm, gel","ex. 460 nm, em. 634"
same,Absorbance peak (nm),[1]; medium not stated,344 nm
Oc1ccc(/C=C/c2cc(O)cc(O)c2)cc1 [Resveratrol],solubility,physchem; organic solvent or mixture,10000 µg/mL
C[n+]1cc2c3c(ccc2c2ccc4cc5c(cc4c21)OCO5)OCO3.[Cl-] [Sanguinarine chloride hydrate],Emission peak (nm),"[2]; ex. 300 nm, liquid",em. 600 nm (liquid);
same,Emission peak (nm),"[2]; ex. 330 nm, gel","nm, em. 590 nm"
same,Emission peak (nm),"[2]; ex. 405 nm, liquid","ex. 405 nm, em. 600"
same,Emission peak (nm),"[2]; ex. 460 nm, gel","ex. 460 nm, em. 591"
same,Emission peak (nm),"[2]; ex. 460 nm, liquid","nm, em. 600 nm"
same,solubility,physchem; organic solvent or mixture,3330 µg/mL
O=C(OC[C@H]1O[C@@H](OC(=O)c2cc(O)c(O)c(OC(=O)c3cc(O)c(O)c(O)c3)c2)[C@H](OC(=O)c2cc(O)c(O)c(OC(=O)c3cc(O)c(O)c(O)c3)c2)[C@@H](OC(=O)c2cc(O)c(O)c(OC(=O)c3cc(O)c(O)c(O)c3)c2)[C@@H]1OC(=O)c1cc(O)c(O)c(OC(=O)c2cc(O)c(O)c(O)c2)c1)c1cc(O)c(O)c(OC(=O)c2cc(O)c(O)c(O)c2)c1 [Tannic acid],solubility,physchem; water,10000 µg/mL
CC1=C(/C=C/C(C)=C/C=C/C(C)=C/C=C/C=C(C)/C=C/C=C(C)/C=C/C2=C(C)C[C@@H](O)CC2(C)C)C(C)(C)C[C@H](O)C1 [Zeaxanthin],Emission peak (nm),"[2]; ex. 300 nm, gel",415 nm and 432 nm and 740 nm and 817 nm
same,solubility,physchem; organic solvent or mixture,2000 µg/mL
same,Absorbance peak (nm),[1]; gel and liquid,465 nm (gel and
